# Source: patent US9422331B2, “2-oxo-2,3,4,5-tetrahydro-1 H-benzo[B]diazepines and their use in the treatment of cancer” (Hoffmann-La Roche Inc., priority 2012, dated 2016)
# Where a name gives a salt, the structure may show the parent alone. Read-outs that look alike come from different tables or passages of the source.
# Assays:
# BIR2 domain of XIAP = BIR2 domain of XIAP (Homo sapiens (Human), UniProt P98170, C202A/C213G); experiment: TR-FRET assay for BIR2: inhibition of binding of XIAP BIR2 domain to Peptide A (SMAC-derived peptide)
# BIR2 domain of XIAP, sequence (P98170 124-240 C202A/C213G): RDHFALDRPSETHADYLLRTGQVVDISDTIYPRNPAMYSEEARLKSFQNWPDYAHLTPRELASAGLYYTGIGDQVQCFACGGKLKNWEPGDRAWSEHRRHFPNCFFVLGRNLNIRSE
# BIR3 domain of XIAP = BIR3 domain of XIAP (Homo sapiens (Human), UniProt P98170); experiment: TR-FRET assay for BIR3: inhibition of binding of XIAP BIR3 domain to Peptide A (SMAC-derived peptide)
# BIR3 domain of XIAP, sequence (P98170 241-356): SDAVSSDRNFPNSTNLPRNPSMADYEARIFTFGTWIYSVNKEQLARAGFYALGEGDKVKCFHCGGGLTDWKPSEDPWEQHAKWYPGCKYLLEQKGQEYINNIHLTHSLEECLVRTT
# [1] = 6x Histidine-tagged BIR2 domain (amino acids 124-240 of XIAP), 10 nM, 20 nM peptide AVPIAQKSEK-(ε-biotin)-OH, TR-FRET
# [2] = 6x Histidine-tagged BIR3 domain (amino acids 241-356 of XIAP), 10 nM, 20 nM peptide AVPIAQKSEK-(ε-biotin)-OH, TR-FRET
SMILES,IC50 (BIR2 domain of XIAP) [nM],IC50 (BIR3 domain of XIAP) [nM],IC50 (BIR2 domain of XIAP; [1]) [nM],IC50 (BIR3 domain of XIAP; [2]) [nM]
"CN[C@@H](C)C(=O)N[C@@H]1C(=O)N(Cc2cc(=O)oc3cc(Cl)ccc23)c2ccccc2N(C(=O)CS(C)(=O)=O)[C@H]1C [Example 40, (S)-N-((3S,4S)-1-((7-chloro-2-oxo-2H-chromen-4-yl)methyl)-4-methyl-5-(2-(methylsulfonyl)acetyl)-2-oxo-2,3,4,5-tetrahydro-1H-benzo[b][1,4]diazepin-3-yl)-2-(methylamino)propanamide 2,2,2-trifluoroacetate]",354,> 54800,,
"CCN[C@@H](C)C(=O)N[C@@H]1C(=O)N(Cc2c(C)ccc3ccccc23)c2ccc(C#N)cc2N(C(=O)CS(C)(=O)=O)[C@H]1C [Example 28, (S)-N-((3S,4S)-7-Cyano-4-methyl-1-((2-methylnaphthalen-1-yl)methyl)-5-(2-(methylsulfonyl)acetyl)-2-oxo-2,3,4,5-tetrahydro-1H-benzo[b][1,4]diazepin-3-yl)-2-(ethylamino)propanamide hydrochloride]",75,> 54800,,
"CN[C@@H](C)C(=O)N[C@@H]1C(=O)N(Cc2ccnc3ccccc23)c2ccccc2N(C(=O)CS(C)(=O)=O)[C@H]1C [Example 16, (S)-N-((2S,3S)-2-Methyl-1-(2-(methylsulfonyl)acetyl)-4-oxo-5-(quinolin-4-ylmethyl)-2,3,4,5-tetrahydro-1H-benzo[b][1,4]diazepin-3-yl)-2-(methylamino)propanamide hydrochloride]",179,> 54800,,
"CN[C@@H](C)C(=O)N[C@@H]1C(=O)N(Cc2nn(-c3ccccc3C#N)c3ccccc23)c2ccc(C#N)cc2N(C(=O)CS(C)(=O)=O)[C@H]1C [Example 53, (S)-N-((3S,4S)-7-cyano-1-((1-(2-cyanophenyl)-1H-indazol-3-yl)methyl)-4-methyl-5-(2-(methylsulfonyl)acetyl)-2-oxo-2,3,4,5-tetrahydro-1H-benzo[b][1,4]diazepin-3-yl)-2-(methylamino)propanamide 2,2,2-trifluoroacetate]",33,> 54800,,
"CN[C@@H](C)C(=O)N[C@@H]1C(=O)N(Cc2nn(-c3ccccc3C#N)c3ccccc23)c2ccccc2N(C(=O)c2ccc(C(C)=O)cc2)[C@H]1C [Example 3, (S)-N-{(2S,3S)-1-(4-acetyl-benzoyl)-5-[1-(2-cyano-phenyl)-1H-indazol-3-ylmethyl]-2-methyl-4-oxo-2,3,4,5-tetrahydro-1H-benzo[b][1,4]diazepin-3-yl}-2-methylamino-propionamide hydrochloride]",,,12,> 54800
"CN[C@@H](C)C(=O)N[C@@H]1C(=O)N(Cc2c(C)cnc3ccccc23)c2ccccc2N(C(C)=O)[C@H]1C [Example 20, (S)-N-((2S,3S)-1-Acetyl-2-methyl-5-((3-methylquinolin-4-yl)methyl)-4-oxo-2,3,4,5-tetrahydro-1H-benzo[b][1,4]diazepin-3-yl)-2-(methylamino)propanamide dihydrochloride]",55,> 54800,,
"CN[C@@H](C)C(=O)N[C@@H]1C(=O)N(Cc2noc3cc(Br)ccc23)c2ccccc2N(C(=O)CS(C)(=O)=O)[C@H]1C [Example 41, (S)-N-((3S,4S)-1-((6-bromobenzo[d]isoxazol-3-yl)methyl)-4-methyl-5-(2-(methylsulfonyl)acetyl)-2-oxo-2,3,4,5-tetrahydro-1H-benzo[b][1,4]diazepin-3-yl)-2-(methylamino)propanamide 2,2,2-trifluoroacetate]",416,> 54800,,
"CN[C@@H](C)C(=O)N[C@@H]1C(=O)N(Cc2nn(-c3ccccc3C#N)c3ccccc23)c2ccccc2N(C(C)=O)[C@H]1C [Example 19, (S)-N-((2S,3S)-1-Acetyl-5-((1-(2-cyanophenyl)-1H-indazol-3-yl)methyl)-2-methyl-4-oxo-2,3,4,5-tetrahydro-1H-benzo[b][1,4]diazepin-3-yl)-2-(methylamino)propanamide]",,,44,> 54800
